Experimental findings from patent publication US6632621B1, “G protein-coupled receptor-like receptors and modulators thereof” (priority 1999, dated 2003) are described below.

Holding throughout (type): biochemical, C. elegans
One assay concerns the target T1, CEGPCR16 receptor (Caenorhabditis elegans, UniProt Q9XXU4).
T1 sequence (Q9XXU4 1-365): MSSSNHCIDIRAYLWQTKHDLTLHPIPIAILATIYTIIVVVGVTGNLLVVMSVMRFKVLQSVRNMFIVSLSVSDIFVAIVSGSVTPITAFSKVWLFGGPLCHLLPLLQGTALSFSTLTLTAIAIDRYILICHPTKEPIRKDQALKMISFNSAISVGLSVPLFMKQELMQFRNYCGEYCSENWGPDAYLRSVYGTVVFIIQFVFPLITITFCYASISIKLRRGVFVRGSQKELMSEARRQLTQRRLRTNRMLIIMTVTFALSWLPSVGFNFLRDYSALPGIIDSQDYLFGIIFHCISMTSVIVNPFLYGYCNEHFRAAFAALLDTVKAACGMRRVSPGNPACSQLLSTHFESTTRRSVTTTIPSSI
Nature of the assay: [35S]GTPγS binding assay, CEGPCR16 expressed in CHO cells. As to the method: (§1) Recombinant pCR3.1 clones encoding invertebrate GPCR-like receptors were transformed into wild-type CHO-K1 cells and functional expression was achieved using a temperature-shift incubation protocol. The CHO-K1 cells were cultured at 37° C. in a humidified atmosphere of 5% CO2 in air in DMEM medium supplemented with 10% heat-inactivated fetal bovine serum (i.e., FBS), 10 μg/ml gentamicin, and 0.1 mM nonessential amino acids to give complete DMEM medium. Additionally, for incubations at temperatures lower than 37° C., the medium was fortified with 10 mM HEPES (pH 7.4). Cells were transfected with recombinant pCR3.1 clones containing GPCR-like receptor DNAs, using LipofectAMINE PLUS™, essentially according to the manufacturer's instructions. […] In separate plastic tubes, PLUS (20 μl/plate; Life Technologies) was added to 0.75 ml/plate of recombinant plasmid DNA in OptiMEM (5 μg/plate; Gibco/BRL—Life Technologies), mixed and incubated at room temperature for 15 minutes. Separately, LipofectAMINE (30 μl/plate) was mixed with 0.75 ml OptiMEM and added to the pre-complexed DNA/PLUS mixture and incubated at room temperature for 15 minutes. The culture medium was then replaced with serum-free transfection medium (DMEM, 5 ml/plate). The DNA-PLUS-LipofectAMINE complex was then added to the plates (1.5 ml/plate) and mixed gently into the medium, followed by a 3 hour incubation at 37° C. in 5% CO2. At this time, the medium was supplemented with complete DMEM medium containing 20% FBS (6.5 ml/plate) and incubation was continued at 37° C. in 5% CO2. After a total of 24 hours at 37° C. in 5% CO2, the medium was replaced with complete DMEM medium fortified with 10 mM HEPES (10 ml/plate) and the cells were moved to an incubator maintained at 28-30° C. in a humidified atmosphere of 5% CO2 in air. The incubation continued for an additional 24 hours, typically at the lower temperature indicated above. A plasmid encoding Green Fluorescent Protein (i.e., GFP, 4 μg/plate) was used for transient GFP expression in CHO-K1 cells to estimate the transfection yields under the same conditions as used for GPCR-like receptor polynucleotides.
(§2) To assess expression, membranes were prepared from transfected CHO-K1 cells. Transfected cells were washed once with ice-cold Dulbecco's phosphate-buffered saline (i.e., PBS), 5 ml per 10 cm plate, and the cells were scraped into 5 ml of the same buffer. Cell suspensions from multiple plates were combined and centrifuged at 500×g for 10 minutes at 4° C. The cell pellet was reconstituted in ice-cold TEE (25 mM Tris, pH 7.4, 5 mM EGTA, 5 mM EDTA). Convenient aliquots were snap-frozen in liquid nitrogen and stored at −70° C. After thawing, the cells were homogenized and centrifuged at 500×g for 5 minutes at 4° C. to pellet nuclei and unbroken cells. Tile supernatant was centrifuged at 47,000×g for 30 minutes at 4° C. The membrane pellet was washed once with TEE, resuspended in 20 mM HEPES, pH 7.4, 100 mM NaCl, 10 mM MgCl2, 1 mM EDTA (assay buffer), distributed into aliquots of 0.5-1.0 ml, and frozen in liquid nitrogen. Membrane aliquots were stored at −70° C. Membrane protein concentration was determined using the BCA Protein Assay Reagent from Pierce (Rockford, Ill.), with bovine serum albumin (i.e., BSA) as a standard.
(§3) Aliquots of cell membranes prepared as described above and stored at −70° C. were thawed, homogenized, and diluted into buffer containing 20 mM HEPES, pH 7.4, 10 mM MgCl2, 1 mM EDTA, and 100 mM NaCl at a concentration of 10-50 μg/ml. Reaction mixtures were prepared in 96-well polypropylene plate, Nunc. Twenty microliters of a 10× putative modulator compound (including but not limited to potential peptide ligands) solution or a water control (20 μl), 18.2 µM GDP (0.11 ml, 10 μM final concentration), and a membrane preparation were mixed and placed on ice. The modulator/ligand-GDP-membrane mixtures were incubated for 20 minutes at room temperature on a shaking platform and then placed on ice.

A further assay concerns the target T2, CEGPCR5 (Caenorhabditis elegans, UniProt Q18179).
T2 sequence (Q18179 1-402): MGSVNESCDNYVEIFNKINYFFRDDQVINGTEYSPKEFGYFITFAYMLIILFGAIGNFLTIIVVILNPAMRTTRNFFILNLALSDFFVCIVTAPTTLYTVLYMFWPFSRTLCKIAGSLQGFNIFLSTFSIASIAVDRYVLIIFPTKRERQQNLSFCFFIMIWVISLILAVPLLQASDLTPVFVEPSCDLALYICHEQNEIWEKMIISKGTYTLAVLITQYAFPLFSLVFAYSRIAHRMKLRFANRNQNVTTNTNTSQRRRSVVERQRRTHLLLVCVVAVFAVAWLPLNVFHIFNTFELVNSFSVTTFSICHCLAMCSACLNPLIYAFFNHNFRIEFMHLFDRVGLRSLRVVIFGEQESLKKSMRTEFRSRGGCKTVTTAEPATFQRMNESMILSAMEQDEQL
The experiment in a line: [35S]GTPγS binding assay, CEGPCR5 expressed in CHO cells. As to the method:
as §1, §2, §3

For a further assay, the target named is T3, CEGPCR12h receptor (Caenorhabditis elegans, UniProt Q20275).
T3 sequence (Q20275 1-402): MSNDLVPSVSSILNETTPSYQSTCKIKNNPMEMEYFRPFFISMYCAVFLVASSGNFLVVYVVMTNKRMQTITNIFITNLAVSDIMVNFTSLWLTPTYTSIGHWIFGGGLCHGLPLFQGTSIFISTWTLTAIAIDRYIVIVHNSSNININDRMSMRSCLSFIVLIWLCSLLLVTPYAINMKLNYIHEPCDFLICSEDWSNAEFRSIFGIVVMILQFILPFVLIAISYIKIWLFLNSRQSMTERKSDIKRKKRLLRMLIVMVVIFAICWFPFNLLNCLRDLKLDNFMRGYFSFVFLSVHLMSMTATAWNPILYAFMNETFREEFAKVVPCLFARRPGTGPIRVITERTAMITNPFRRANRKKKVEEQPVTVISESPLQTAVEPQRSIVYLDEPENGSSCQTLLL
Nature of the assay: [35S]GTPγS binding assay, CEGPCR12h expressed in CHO cells. The conditions noted are these: Table 11; for activity at single concentration: peptides tested at 5 μM; for EC50: EC50 range, one range for the group, results apply to all CEGPCR12 isoforms. As to the method:
as §1, §2, §3

[1] abbreviates: Table 10, one range for the group of peptides, read-out: EC50 range.
Setting [2] is: EC50 range, Table 9, one range for the group of peptides.

Where two headings read alike, the source gives them in different places. Where a SMILES comes first, the peptide text is derived from it. Where no end group is shown, it is not given here. [ ]: non-standard residue; d: D form. pGlu = O=C1CC[C@@H](C(=O)O)N1

Turning to EAEEPLGTMRF-NH2 [EAEEPLGTMRF-NH2], the EC50 at CEGPCR16 receptor (setting [1]) is 60 to 300 nM.

Regarding AGPRFIRF-NH2 [AGPRFIRF-NH2], the EC50 on CEGPCR5 lay in the range of 1000 to 8000 nM.

KPNFLRY-NH2 [KPNFLRY-NH2] returned an EC50 on CEGPCR5 (setting [2]) of 1000 to 8000 nM.

Take SADDSAPFGTMRF-NH2 [SADDSAPFGTMRF-NH2]: at CEGPCR16 receptor (setting [1]), the EC50 was in the range of 60 to 300 nM.

KSVPGVLRF-NH2 [KSVPGVLRF-NH2]: the results for the EC50 at CEGPCR16 receptor (setting [1]) and at CEGPCR5 were 700 to 4600 nM and 1000 to 8000 nM, respectively. Also, the “activity at single concentration” value on CEGPCR12h receptor is “active at”.

Regarding DFDGAMPGVLRF-NH2 [DFDGAMPGVLRF-NH2], the EC50 on CEGPCR16 receptor (setting [1]) lay within 700 to 4600 nM.

With EDGNAPFGTMRF-NH2 [EDGNAPFGTMRF-NH2], the EC50 on CEGPCR16 receptor (setting [1]) fell in the range of 60 to 300 nM.

Regarding SVPGVLRF-NH2 [SVPGVLRF-NH2], the values for the EC50 on CEGPCR16 receptor (setting [1]), on CEGPCR16 receptor (read-out: EC50) and at CEGPCR5 were 60 to 300 nM, 64 nM and 80 to 800 nM, respectively. For the same compound, the “activity at single concentration” value at CEGPCR12h receptor was “active at”.

For SEVPGVLRF-NH2 [SEVPGVLRF-NH2], the EC50 at CEGPCR16 receptor (setting [1]) fell in the range of 700 to 4600 nM.

Compound `CC(C)C[C@H](NC(=O)[C@H](Cc1ccccc1)NC(=O)[C@@H](NC(=O)[C@H](Cc1c[nH]cn1)NC(=O)[C@H](CC(=O)O)NC(=O)[C@@H](NC(=O)[C@H](CC(=O)O)NC(=O)[C@@H]1CCC(=O)N1)C(C)C)C(C)C)C(=O)N[C@@H](CCCNC(=N)N)C(=O)N[C@@H](Cc1ccccc1)C(N)=O` [pQDVDHVFLRF-NH2] ([pGlu]DVDHVFLRF-NH2) displayed an EC50 at CEGPCR12h receptor of 1500 to 3000 nM.

SDRNFLRF-NH2 [SDRNFLRF-NH2]: the EC50 on CEGPCR5 (setting [2]) is 80 to 800 nM.

As to TDVDHVFLRF-NH2 [TDVDHVFLRF-NH2], at CEGPCR12h receptor, the EC50 is 1500 to 3000 nM.

Take DVPGVLRF-NH2 [DVPGVLRF-NH2]: the EC50 at CEGPCR16 receptor (setting [1]) lay within 700 to 4600 nM. The “activity at single concentration” value on CEGPCR12h receptor was “active at”.

Compound EIVFHQISPIFFRF-NH2 [EIVFHQISPIFFRF-NH2] had an EC50 at CEGPCR5 of 1000 to 8000 nM.

Take SPLGTMRF-NH2 [SPLGTMRF-NH2]: the EC50 at CEGPCR16 receptor (setting [1]) is 60 to 300 nM.

On to GDVPGVLRF-NH2 [GDVPGVLRF-NH2], for which the EC50 at CEGPCR16 receptor (setting [1]) was 700 to 4600 nM. Besides, the “activity at single concentration” value at CEGPCR12h receptor is listed as “active at”.

Regarding GMPGVLRF-NH2 [GMPGVLRF-NH2], the EC50 at CEGPCR16 receptor (setting [1]) lay in the range of 60 to 300 nM; at CEGPCR5 it was 1000 to 8000 nM. In addition, on CEGPCR12h receptor, the “activity at single concentration” value is reported as “active at”.
